According to EPA's ToxRefDB 2:

How the values were obtained:
[1] = system: primate; details: Sub-acute repeat dose toxicity, Oral, Gavage/Intubation, dose end: 28 day, group: systemic
[2] = system: primate; details: Sub-acute repeat dose toxicity; Oral; Gavage/Intubation; dose end: 10 day; group: systemic; systemic / clinical chemistry / [other] / [other] + systemic / clinical chemistry / apolipoprotein a1 / apolipoprotein a1 + systemic / …
[3] = system: rat; details: Sub-acute repeat dose toxicity, Oral, Gavage/Intubation, dose end: 34 day, group: systemic
[4] = system: rat; details: Sub-acute repeat dose toxicity; Oral; Gavage/Intubation; dose end: 10 day; group: systemic; systemic / hematology / erythrocyte (rbc) count differential / erythrocyte (rbc) + systemic / hematology / hematocrit (hct) / hematocrit (…
[5] = system: rabbit; details: Sub-acute repeat dose toxicity; Oral; Gavage/Intubation; dose end: 4 day; group: systemic; systemic / hematology / erythrocyte (rbc) count differential / erythrocyte (rbc) + systemic / hematology / hematocrit (hct) / hematocrit (…
[6] = system: rat; details: Sub-acute repeat dose toxicity, sprague dawley, Oral, Feed, dose end: 10 day, group: systemic
[7] = system: dog; details: Subchronic oral toxicity in nonrodent, beagle, Gavage/Intubation, dose end: 91 day, group: systemic
[8] = system: dog; details: Sub-acute repeat dose toxicity, beagle, Oral, Gavage/Intubation, dose end: 15 day, group: systemic
[9] = system: rat; details: Sub-acute repeat dose toxicity, sprague dawley, Oral, Gavage/Intubation, dose end: 12 day, group: systemic
[10] = system: rat; details: Subchronic oral toxicity in rodents, sprague dawley, Gavage/Intubation, dose end: 91 day, group: systemic
[11] = system: mouse; details: Sub-acute repeat dose toxicity; Oral; Feed; dose end: 10 day; group: systemic; systemic / in life observation / body weight / body weight + systemic / in life observation / food consumption / food consumption
[12] = system: rat; details: Sub-acute repeat dose toxicity, sprague dawley, Oral, Gavage/Intubation, dose end: 14 day, group: systemic
[13] = system: rabbit; details: Sub-acute repeat dose toxicity; new zealand white; Oral; Gavage/Intubation; dose end: 4 day; group: systemic; systemic / in life observation / clinical signs / erythema + systemic / in life observation / clinical signs / tachypnea
[14] = system: rat; details: Combined chronic toxicity/carcinogenicity; fischer; Oral; Feed; dose end: 2 year; group: systemic; systemic / pathology microscopic / kidney / dilatation + systemic / pathology microscopic / kidney / hyperplasia + systemic / pathology …
[15] = system: dog; details: Chronic toxicity, beagle, Oral, Feed, dose end: 1 year, group: systemic
[16] = system: rat; details: Subchronic oral toxicity in rodents, fischer, Feed, dose end: 13 week, group: systemic
[17] = system: mouse; details: Carcinogenicity, b6c3f1, Oral, Feed, dose end: 24 month, group: systemic
[18] = system: mouse; details: Subchronic oral toxicity in rodents, b6c3f1, Feed, dose end: 13 week, group: systemic
[19] = system: dog; details: Subchronic oral toxicity in nonrodent, beagle, Feed, dose end: 103 day, group: systemic
[20] = system: rabbit; details: Prenatal developmental toxicity study, new zealand white, Oral, Gavage/Intubation, dose end: 28 GD
[21] = system: rat; details: Multigenerational reproductive toxicity study, sprague dawley, Oral, Feed, dose end: 2 generation
[22] = system: rat; details: Prenatal developmental toxicity study, sprague dawley, Oral, Gavage/Intubation, dose end: 15 GD
[23] = system: rat; details: Subchronic oral toxicity in rodents, sprague dawley, Feed, dose end: 90 day, group: systemic, systemic / clinical chemistry / cholesterol / cholesterol + systemic / in life observation / body weight / body weight + systemic / in life …
[24] = systemic / in life observation / clinical signs / pulse/pressure + systemic / clinical chemistry / albumin / albumin + systemic / hematology…
[25] = systemic / in life observation / clinical signs / pulse/pressure + systemic / in life observation / clinical signs / arrhythmia + systemic…
[26] = systemic / clinical chemistry / [other] / [other] + systemic / clinical chemistry / globulins / globulins + systemic / clinical chemistry / …
[27] = systemic / in life observation / body weight / body weight + systemic / clinical chemistry / [other] / [other] + systemic / clinical …
[28] = systemic / in life observation / body weight / body weight + systemic / in life observation / clinical signs / drooping eyelids (ptosis) + …
[29] = systemic / in life observation / body weight / body weight + systemic / in life observation / clinical signs / lacrimation or red-colored …
[30] = systemic / clinical chemistry / alkaline phosphatase (alp/alk) / alkaline phosphatase (alp/alk) + systemic / clinical chemistry / bilirubin…
[31] = systemic / in life observation / clinical signs / emesis
[32] = systemic / in life observation / clinical signs / arrhythmia + systemic / in life observation / clinical signs / emesis
[33] = systemic / in life observation / clinical signs / arrhythmia + systemic / in life observation / clinical signs / emesis + systemic / in life…
[34] = systemic / in life observation / clinical signs / salivation
[35] = systemic / in life observation / clinical signs / salivation + systemic / in life observation / food consumption / food consumption + …
[36] = systemic / organ weight / heart / absolute + systemic / pathology microscopic / thyroid gland / hypertrophy + systemic / in life observation…
[37] = systemic / pathology microscopic / blood vessel / arteritis + systemic / in life observation / body weight / body weight
[38] = systemic / clinical chemistry / alkaline phosphatase (alp/alk) / alkaline phosphatase (alp/alk) + systemic / pathology microscopic / kidney…
[39] = systemic / clinical chemistry / alanine aminotransferase (alt/sgpt) / alanine aminotransferase (alt/sgpt) + systemic / clinical chemistry / …
[40] = systemic / organ weight / heart / relative to body weight + systemic / organ weight / kidney / absolute + systemic / organ weight / kidney…
[41] = systemic / organ weight / brain / relative to body weight + systemic / organ weight / kidney / absolute
[42] = systemic / organ weight / brain / relative to body weight + systemic / organ weight / kidney / absolute + systemic / organ weight / kidney…
[43] = systemic / clinical chemistry / albumin / albumin + systemic / clinical chemistry / calcium / calcium + systemic / clinical chemistry / …
[44] = group: developmental, developmental / offspring survival late / lactation index / lactation index + developmental / offspring survival late / viability index / …
[45] = group: maternal, reproductive / offspring survival early / dead fetuses / dead fetuses
[46] = group: offspring, developmental / offspring survival late / viability index / viability index + systemic / in life observation / body weight / offspring (pup…
[47] = group: parental, systemic / in life observation / body weight / body weight gain + systemic / organ weight / liver / relative to body weight
[48] = group: developmental, developmental / developmental malformation / bone / enlarged fontanel + developmental / developmental malformation / bone / incomplete …
[49] = group: maternal, systemic / in life observation / body weight / body weight gain
[50] = group: maternal, systemic / in life observation / body weight / body weight gain + systemic / in life observation / body weight / body weight + systemic / in…

CC(C)c1nnc2ccc(-c3ocnc3-c3cc(F)ccc3F)cn12
LEL [1, 24]: 30 mg/kg/day
NEL [1, 24]: < 30 mg/kg/day
LOAEL [1, 25]: > 500 mg/kg/day
NOAEL [1, 25]: ≥ 500 mg/kg/day
LEL [2]: 1000 mg/kg/day
LOAEL [2]: > 1000 mg/kg/day
NEL [2]: 300 mg/kg/day
NOAEL [2]: ≥ 1000 mg/kg/day
LEL [3, 26]: 100 mg/kg/day
NEL [3, 26]: < 100 mg/kg/day
LOAEL [3, 27]: > 2000 mg/kg/day
NOAEL [3, 27]: ≥ 2000 mg/kg/day
LOAEL [4]: > 2000 mg/kg/day
NEL [4]: < 250 mg/kg/day
NOAEL [4]: ≥ 2000 mg/kg/day
LEL [5]: 40 mg/kg/day
LOAEL [5]: > 80 mg/kg/day
NEL [5]: 20 mg/kg/day
NOAEL [5]: ≥ 80 mg/kg/day

CCCOc1ccc(S(=O)(=O)N2CCN(CC)CC2)cc1-c1nc2c(CC)n(Cc3ccccn3)nc2c(=O)[nH]1
LOAEL [6, 28]: > 2000 mg/kg/day
NOAEL [6, 28]: ≥ 2000 mg/kg/day
LEL [6, 29]: 500 mg/kg/day
NEL [6, 29]: < 500 mg/kg/day
LOAEL [7, 30]: > 100 mg/kg/day
NOAEL [7, 30]: ≥ 100 mg/kg/day
LEL [7, 31]: 10 mg/kg/day
NEL [7, 31]: < 10 mg/kg/day
LEL [8, 32]: 15 mg/kg/day
NEL [8, 32]: < 15 mg/kg/day
LOAEL [8, 33]: > 150 mg/kg/day
NOAEL [8, 33]: ≥ 150 mg/kg/day
LEL [9, 34]: 100 mg/kg/day
NEL [9, 34]: < 100 mg/kg/day
LOAEL [9, 35]: > 400 mg/kg/day
NOAEL [9, 35]: ≥ 400 mg/kg/day
NEL ([10]; systemic / organ weight / heart / absolute + systemic / pathology microscopic / thyroid gland / hypertrophy): 25 mg/kg/day
LEL [10, 36]: 100 mg/kg/day
LOAEL [10, 36]: > 400 mg/kg/day
NOAEL [10, 36]: ≥ 400 mg/kg/day
LEL [11]: 2000 mg/kg/day
LOAEL [11]: > 2000 mg/kg/day
NOAEL [11]: ≥ 2000 mg/kg/day
NEL ([12]; systemic / pathology microscopic / blood vessel / arteritis): 45 mg/kg/day
LEL [12, 37]: 200 mg/kg/day
LOAEL [12, 37]: > 200 mg/kg/day
NOAEL [12, 37]: ≥ 200 mg/kg/day
LEL [13]: 400 mg/kg/day
LOAEL [13]: > 400 mg/kg/day
NEL [13]: < 400 mg/kg/day
NOAEL [13]: ≥ 400 mg/kg/day

Cc1ccn2nc(S(=O)(=O)Nc3c(F)cccc3F)nc2n1 [Flumetsulam]
LEL [14]: 1000 mg/kg/day
LOAEL [14]: 1000 mg/kg/day
NEL [14]: 500 mg/kg/day
NOAEL [14]: 500 mg/kg/day
LOAEL [15, 38]: 500 mg/kg/day
NEL [15, 38]: 20 mg/kg/day
NOAEL [15, 38]: 100 mg/kg/day
LEL ([15]; systemic / organ weight / pituitary gland / relative to body weight): 100 mg/kg/day
LOAEL [16, 39]: 1000 mg/kg/day
NOAEL [16, 39]: 250 mg/kg/day
NEL ([16]; systemic / hematology / erythrocyte (rbc) count differential / erythrocyte (rbc) + systemic / hematology / hemoglobin (hgb) / hemoglobin (…): 2500 mg/kg/day
NEL ([17]; systemic / organ weight / heart / relative to body weight): 500 mg/kg/day
LEL [17, 40]: 1000 mg/kg/day
LOAEL [17, 40]: > 1000 mg/kg/day
NOAEL [17, 40]: ≥ 1000 mg/kg/day
NEL [18, 41]: 1000 mg/kg/day
NOAEL [18, 41]: 1000 mg/kg/day
LEL [18, 42]: 5000 mg/kg/day
LOAEL [18, 42]: 5000 mg/kg/day

CCNS(=O)(=O)C(F)(F)C(F)(F)C(F)(F)C(F)(F)C(F)(F)C(F)(F)C(F)(F)C(F)(F)F [Sulfluramid]
LOAEL [19, 43]: > 23.2 mg/kg/day
NOAEL [19, 43]: ≥ 23.2 mg/kg/day
LEL ([19]; systemic / organ weight / liver / relative to body weight + systemic / clinical chemistry / calcium / calcium): 2.52 mg/kg/day
LEL [20, 44]: 0.3 mg/kg/day
LOAEL [20, 44]: 0.3 mg/kg/day
NEL [20, 44]: < 0.3 mg/kg/day
NOAEL [20, 44]: < 0.3 mg/kg/day
LEL [20, 45]: 0.3 mg/kg/day
LOAEL [20, 45]: 0.3 mg/kg/day
NEL [20, 45]: < 0.3 mg/kg/day
NOAEL [20, 45]: < 0.3 mg/kg/day
LEL [21, 46]: 1.34 mg/kg/day
LOAEL [21, 46]: 1.34 mg/kg/day
NEL [21, 46]: 0.45 mg/kg/day
NOAEL [21, 46]: 0.45 mg/kg/day
LEL [21, 47]: 1.34 mg/kg/day
LOAEL [21, 47]: 1.34 mg/kg/day
NEL [21, 47]: 0.45 mg/kg/day
NOAEL [21, 47]: 0.45 mg/kg/day
LEL [22, 48]: 13.3 mg/kg/day
LOAEL [22, 48]: 13.3 mg/kg/day
NEL [22, 48]: 3.3 mg/kg/day
NOAEL [22, 48]: 3.3 mg/kg/day
LEL [22, 49]: 3.3 mg/kg/day
LOAEL [22, 49]: 3.3 mg/kg/day
NEL [22, 50]: 0.8 mg/kg/day
NOAEL [22, 50]: 0.8 mg/kg/day
LEL [23]: 2.5 mg/kg/day
LOAEL [23]: 2.5 mg/kg/day
NEL [23]: 0.5 mg/kg/day
NOAEL [23]: 0.5 mg/kg/day
